Measured values: PubChem BioAssay AID328 (DTP/NCI, 2004)
Several values for one entry are separate records, joined by “and”; a condition that tells them apart may be missing. Identical values can stand only once. Toxic doses and inconclusive results are not listed. Rule for the calls: active = survival T/C of 150% or more; inactive = T/C below 125% in these data.

Test system: BDF1 mice, P388 leukemia ip, median survival T/C
Experiment: NCI In Vivo Anticancer Drug Screen. Data for tumor model P388 Leukemia (intraperitoneal) in B6D2F1 (BDF1) mice
Details: endpoint: median survival time, higher = longer survival
In short: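 Transplantable tumour in mice; compound vs vehicle dosing; survival scored; ratio of treated to control reported.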

[1] = dose: 12.5 mg/kg/injection, schedule: Q01DX009 (ip), vehicle: saline
[2] = dose: 25.0 mg/kg/injection, schedule: Q01DX009 (ip), vehicle: saline
[3] = dose: 50.0 mg/kg/injection, schedule: Q01DX009 (ip), vehicle: saline
[4] = dose: 50.0 mg/kg/injection, schedule: Q01DX009 (ip), vehicle: saline with Tween-80
[5] = dose: 100.0 mg/kg/injection, schedule: Q01DX009 (ip), vehicle: saline with Tween-80
[6] = dose: 200.0 mg/kg/injection, schedule: Q01DX009 (ip), vehicle: saline with Tween-80
[7] = dose: 100.0 mg/kg/injection, schedule: Q04DX003 (ip), vehicle: saline
[8] = dose: 200.0 mg/kg/injection, schedule: Q04DX003 (ip), vehicle: saline
[9] = dose: 400.0 mg/kg/injection, schedule: Q04DX003 (ip), vehicle: saline
[10] = dose: 100.0 mg/kg/injection, schedule: Q01DX009 (ip), vehicle: Klucel (hydroxypropylcellulose) (HPC)
[11] = dose: 100.0 mg/kg/injection, schedule: Q04DX003 (ip), vehicle: Klucel (hydroxypropylcellulose) (HPC)
[12] = dose: 200.0 mg/kg/injection, schedule: Q01DX009 (ip), vehicle: Klucel (hydroxypropylcellulose) (HPC)
[13] = dose: 200.0 mg/kg/injection, schedule: Q04DX003 (ip), vehicle: Klucel (hydroxypropylcellulose) (HPC)

Measured: T/C

CCCC(N=Cc1ccccc1O)C(=O)O.CCCC(N=Cc1ccccc1O)C(=O)O.[Fe] (stereo unspecified)
inactive: [1] 86 % of control | [2] 90 % of control | [3] 90 % of control | dose: 50.0 mg/kg/injection, schedule: Q04DX003 (ip), vehicle: saline 90 % of control

Cc1c(NS(=O)(=O)c2ccccc2)c(C)c(NS(=O)(=O)c2ccccc2)c(C)c1NS(=O)(=O)c1ccccc1
inactive: [4] 88 % of control | [5] 91 % of control | [6] 88 % of control

CC(/C=C/C(O)=C1/C(=O)CNC1=O)=C\[C@@H](C)[C@H]1O[C@@]2(C)O[C@H](C(=O)[C@@H]3O[C@@]32C)[C@@H]1C
inactive: dose: 3.13 mg/kg/injection, schedule: Q01DX009 (ip), vehicle: saline with Tween-80 108 % of control | dose: 6.25 mg/kg/injection, schedule: Q01DX009 (ip), vehicle: saline with Tween-80 105 % of control | dose: 12.5 mg/kg/injection, schedule: Q01DX009 (ip), vehicle: saline with Tween-80 103 % of control | dose: 25.0 mg/kg/injection, schedule: Q01DX009 (ip), vehicle: saline with Tween-80 100 % of control

c1ccc2c(c1)[nH]c1nc3ncncc3nc12
inactive: [7] 122 % of control | [8] 100 % of control | [9] 100 % of control

COc1ccc(C(=O)/C=C/c2ccc(OCc3ccccc3)cc2)c(OC)c1
inactive: [4] 103 % of control | [5] 94 % of control | [6] 90 % of control

NN1N=Nc2cccc3cccc1c23
inactive: [3] 105 % of control | dose: 100.0 mg/kg/injection, schedule: Q01DX009 (ip), vehicle: saline 110 % of control | dose: 110.0 mg/kg/injection, schedule: Q04DX003 (ip), vehicle: saline 100 % of control | dose: 170.0 mg/kg/injection, schedule: Q04DX003 (ip), vehicle: saline 95 % of control | dose: 200.0 mg/kg/injection, schedule: Q01DX009 (ip), vehicle: saline 110 % of control | dose: 255.0 mg/kg/injection, schedule: Q04DX003 (ip), vehicle: saline 95 % of control

NS(=O)(=O)O
inactive: [1] 91 % of control | [2] 87 % of control

O=[N+]([O-])c1cc([N+](=O)[O-])c(Nn2c3ccccc3c3ccccc32)c([N+](=O)[O-])c1
inactive: dose: 6.25 mg/kg/injection, schedule: Q01DX009 (ip), vehicle: Klucel (hydroxypropylcellulose) (HPC) 100 % of control | dose: 12.5 mg/kg/injection, schedule: Q01DX009 (ip), vehicle: Klucel (hydroxypropylcellulose) (HPC) 90 % of control and 100 % of control | dose: 25.0 mg/kg/injection, schedule: Q01DX009 (ip), vehicle: Klucel (hydroxypropylcellulose) (HPC) 100 % of control and 110 % of control | dose: 50.0 mg/kg/injection, schedule: Q01DX009 (ip), vehicle: Klucel (hydroxypropylcellulose) (HPC) 120 % of control | [10] 100 % of control | [11] 100 % of control | [12] 95 % of control | [13] 113 % of control

CC1CSCC(C)O1 (stereo unspecified)
inactive: [4] 90 % of control | [5] 100 % of control | [7] 100 % of control | [6] 104 % of control | [8] 100 % of control | [9] 104 % of control

CCOC(=O)C(COS(=O)(=O)c1ccc(C)cc1)(COS(=O)(=O)c1ccc(C)cc1)C(=O)OCC
inactive: [10] 108 % of control | [11] 100 % of control | [12] 104 % of control | [13] 104 % of control | dose: 400.0 mg/kg/injection, schedule: Q01DX009 (ip), vehicle: Klucel (hydroxypropylcellulose) (HPC) 100 % of control | dose: 400.0 mg/kg/injection, schedule: Q04DX003 (ip), vehicle: Klucel (hydroxypropylcellulose) (HPC) 100 % of control

CC1(C)N=C(N)N=C(N)N1NC(=O)c1cccc(Cl)c1
inactive: dose: 50.0 mg/kg/injection, schedule: Q04DX003 (ip), vehicle: saline sonified 109 % of control | dose: 100.0 mg/kg/injection, schedule: Q04DX003 (ip), vehicle: saline sonified 109 % of control | dose: 200.0 mg/kg/injection, schedule: Q04DX003 (ip), vehicle: saline sonified 109 % of control

CCCCNC(=O)c1ccccc1Sc1ccccc1C(=O)NCCCC
inactive: dose: 100.0 mg/kg/injection, schedule: Q04DX002 (ip), vehicle: saline with Tween-80 107 % of control | dose: 200.0 mg/kg/injection, schedule: Q04DX002 (ip), vehicle: saline with Tween-80 109 % of control | dose: 400.0 mg/kg/injection, schedule: Q04DX002 (ip), vehicle: saline with Tween-80 104 % of control
